{"source": "paper PMC7804203", "about": "“Targeting adaptor protein SLP76 of RAGE as a therapeutic approach for lethal sepsis” (Nature Communications, 2021)", "format_in_all_cases": "cell-based", "key": {"[1]": {"tested_on": "p38 MAPK phosphorylation, RAW264.7 cells", "assay": "Western blot, AGE-induced p38 MAPK activation after TAT-fused peptides", "conditions": "AGEs+, relative to Ctrl without AGEs = 1", "method": "(§1) Cultured cells in 6-well plates were harvested, washed twice with PBS, and lysed for 30 min on ice in 150 μl of cell lysis buffer (#9803) from CST (Boston, MA, USA) containing 1 mM PMSF and 2 μg/ml leupeptin. Proteins were quantified with the BCA method. Protein samples were resolved by 10% SDS-PAGE, transferred to a nitrocellulose (NC) membrane (#GE10600002), and blocked for 1 h with 5% nonfat milk in Tris-buffered saline containing 0.1% Tween 20 (TBST) at room temperature. After incubation with a specific primary antibody overnight at 4 °C, the membrane was washed with TBST three times. Then, the membrane was incubated with a secondary antibody for 1 h at room temperature. Enhanced chemiluminescence (ECL) (#32109, Thermo Fisher Scientific, Waltham, MA, USA) was used to visualize the protein bands, and images were acquired in a ChemiDoc™ Imaging System (Bio-Rad, Hercules, CA, USA). Each experiment was repeated at least three times."}, "[2]": {"tested_on": "p38 MAPK phosphorylation, HEK293 cells", "assay": "Western blot, p38 MAPK phosphorylation in transfected HEK293 cells treated with AGEs", "conditions": "Fig. 4b, AGEs 100 μg/ml, 15 min, single runs Exp1-Exp3", "method": "(§2) HEK293 cells (3 × 10^5) were cultured to a confluence of 80–90% in a 60 mm dish. Then, cells were transfected with 2 μg of total DNA by using 6 μl GeneJammer reagent (#204130, Agilent, Santa Clara, CA, USA) mixed with Opti-MEM (200 μl final volume) and were then incubated for 5 min at room temperature. RAW264.7 cells (1 × 10^5) were transfected with control siRNA, siRNA targeting AGER or siRNA targeting SLP76 using HiPerFect reagent (#301705, Qiagen, Hilden, Germany). SiRNA diluted in HiPerFect transfection reagent was premixed with Opti-MEM medium at room temperature for 5 min and incubated with cells in a 24-well plate for 48 h.\nas §1"}, "[3]": {"tested_on": "IKKα/β phosphorylation, HEK293 cells", "assay": "Western blot, IKKα/β phosphorylation in transfected HEK293 cells treated with AGEs", "conditions": "Fig. 4d, AGEs 100 μg/ml, 15 min, single runs Exp1-Exp3", "method": "as §2, §1"}, "[4]": {"tested_on": "JNKs phosphorylation, RAW264.7 cells", "assay": "Western blot, JNK phosphorylation in RAW264.7 cells treated with AGEs", "conditions": "AGEs 100 μg/ml; for JNK phosphorylation: Supplementary Fig. 4, single runs Exp1-Exp3", "method": "as §1"}, "[5]": {"tested_on": "ERK1/2 phosphorylation, HEK293 cells", "assay": "Western blot, ERK1/2 phosphorylation in transfected HEK293 cells treated with AGEs", "conditions": "Fig. 4c, AGEs 100 μg/ml, 15 min, single runs Exp1-Exp3", "method": "as §2, §1"}, "[6]": {"tested_on": "ERK1/2 phosphorylation, RAW264.7 cells", "assay": "Western blot, ERK1/2 phosphorylation in RAW264.7 cells treated with AGEs", "conditions": "15 min (P < 0.05)", "method": "as §1"}, "[7]": {"tested_on": "IKKα/β phosphorylation, RAW264.7 cells", "assay": "Western blot, AGE-induced IKKα/β activation after TAT-fused peptides", "conditions": "AGEs+, relative to Ctrl without AGEs = 1", "method": "as §1"}, "[8]": {"tested_on": "interaction between RAGE and SLP76 in HEK293 cells", "assay": "Co-IP of Flag-SLP76 with HA-RAGE (HA-tag antibody) in HEK293 cells treated with AGEs", "conditions": "Fig. 1c–e", "method": "as §2\nAfter transfection for 24 h, HEK293 cells were treated with AGEs at the indicated times and doses. Then, cells were collected and lysed with lysis buffer, and protein was quantitated with a bicinchoninic acid (BCA) kit (#23227, Thermo Fisher Scientific, Waltham, MA, USA). Total input protein (500 µg) was incubated with anti-FLAG M2 beads or anti-HA affinity gel overnight at 4 °C. After brief centrifugation, samples were washed five times with lysis buffer containing 0.1% Tween 20. Samples were then resolved by SDS-PAGE and subjected to western blotting with a specific antibody against the HA or Flag tag."}, "[9]": {"tested_on": "p38 MAPK phosphorylation, RAW264.7 cells", "assay": "Western blot, p38 MAPK phosphorylation in RAW264.7 cells treated with AGEs", "conditions": "15 min (P < 0.05)", "method": "as §1"}, "[10]": {"tested_on": "ERK1/2 phosphorylation, RAW264.7 cells", "assay": "Western blot, AGE-induced ERK1/2 activation after TAT-fused peptides", "conditions": "AGEs+, relative to Ctrl without AGEs = 1", "method": "as §1"}}, "note": "Values joined by “and” are separate entries in the source; they are usually repeats but may differ in a detail not shown here. Identical values can stand only once."}
{"substance": "AGEs: AGEs-BSA (#2221-10) purchased from Biovision; advanced glycation end products, RAGE ligand", "values": [{"measurement": "Relative p38 MAPK phosphorylation, Supplementary figure 11c", "setting": "[1]; Exp1", "result": 2.6013}, {"measurement": "Relative p38 MAPK phosphorylation, Supplementary figure 11c", "setting": "[1]; Exp2", "result": 2.501}, {"measurement": "Relative p38 MAPK phosphorylation, Supplementary figure 11c", "setting": "[1]; Exp3", "result": 3.172}, {"measurement": "phosphorylated p38 MAPK", "setting": "[2]; RAGE overexpressed", "result": "1.6247 and 1.965 and 1.83"}, {"measurement": "phosphorylated p38 MAPK", "setting": "[2]; RAGE+SLP76 overexpressed", "result": "2.026 and 2.548 and 2.612"}, {"measurement": "phosphorylated p38 MAPK", "setting": "[2]; SLP76 overexpressed", "result": "1.3753 and 1.591 and 1.725"}, {"measurement": "phosphorylated p38 MAPK", "setting": "[2]; control vector", "result": "1.2576 and 1.45 and 1.104"}, {"measurement": "phosphorylated IKKα/β", "setting": "[3]; RAGE overexpressed", "result": "12.7634 and 9.791 and 10.05"}, {"measurement": "phosphorylated IKKα/β", "setting": "[3]; RAGE+SLP76 overexpressed", "result": "21.1403 and 18.74 and 17.6458"}, {"measurement": "phosphorylated IKKα/β", "setting": "[3]; SLP76 overexpressed", "result": "5.321 and 6.4 and 5.551"}, {"measurement": "phosphorylated IKKα/β", "setting": "[3]; control vector", "result": "8.805 and 7.3 and 6.5457"}, {"measurement": "Phosphorylation of JNKs", "setting": "[4]; 0-240 min, n=3", "result": "no significant difference between groups"}, {"measurement": "JNK phosphorylation", "setting": "[4]; 5 min", "result": "0.9831 and 1.298 and 1.325"}, {"measurement": "JNK phosphorylation", "setting": "[4]; 15 min", "result": "1.062 and 0.8245 and 0.7215"}, {"measurement": "JNK phosphorylation", "setting": "[4]; 30 min", "result": "1.133 and 1.03 and 0.8721"}, {"measurement": "JNK phosphorylation", "setting": "[4]; 60 min", "result": "1.061 and 0.95 and 0.8845"}, {"measurement": "JNK phosphorylation", "setting": "[4]; 90 min", "result": "1.254 and 1.05 and 0.7684"}, {"measurement": "JNK phosphorylation", "setting": "[4]; 120 min", "result": "1.217 and 0.98 and 0.8649"}, {"measurement": "JNK phosphorylation", "setting": "[4]; 240 min", "result": "1.277 and 0.91 and 0.7954"}, {"measurement": "phosphorylated ERK1/2", "setting": "[5]; RAGE overexpressed", "result": "4.032 and 4.674 and 4.165"}, {"measurement": "phosphorylated ERK1/2", "setting": "[5]; RAGE+SLP76 overexpressed", "result": "5.962 and 6.497 and 6.322"}, {"measurement": "phosphorylated ERK1/2", "setting": "[5]; SLP76 overexpressed", "result": "3.146 and 2.87 and 3.315"}, {"measurement": "phosphorylated ERK1/2", "setting": "[5]; control vector", "result": "3.0116 and 3.25 and 2.795"}, {"measurement": "Phosphorylation of ERK1/2", "setting": "[6]", "result": "increased significantly"}, {"measurement": "Relative IKKα/β phosphorylation, Supplementary figure 11e", "setting": "[7]; Exp1", "result": 3.559}, {"measurement": "Relative IKKα/β phosphorylation, Supplementary figure 11e", "setting": "[7]; Exp2", "result": 4.547}, {"measurement": "Relative IKKα/β phosphorylation, Supplementary figure 11e", "setting": "[7]; Exp3", "result": 6.152}, {"measurement": "RAGE/SLP76 binding after exposure to AGEs", "setting": "[8]", "result": "dose- and time-dependent"}, {"measurement": "Phosphorylation of p38 MAPK", "setting": "[9]", "result": "increased significantly"}, {"measurement": "Relative ERK1/2 phosphorylation, Supplementary figure 11d", "setting": "[10]; Exp1", "result": 3.946}, {"measurement": "Relative ERK1/2 phosphorylation, Supplementary figure 11d", "setting": "[10]; Exp2", "result": 5.325}, {"measurement": "Relative ERK1/2 phosphorylation, Supplementary figure 11d", "setting": "[10]; Exp3", "result": 6.025}]}
